In patent publication US12077503B2, “Substituted cyclic amides and their use as herbicides” (FMC CORPORATION, priority 2015, dated 2024):

Key:
Assay type in all cases: in vivo
[1] = tested on: sedge, umbrella (small-flower umbrella sedge, Cyperus difformis); assay: Test B flooded paddy test; details: Cyperus difformis, 250 g ai/ha, Flood; 0 to 100 scale where 0 is no effect and 100 is complete control; read-out: Sedge, Umbrella plant response rating
Procedure, shortened: (§1)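 Evaluation by eye, against controls, occurred 13–15 d post-treatment in a greenhouse, using a 0 (no effect) to 100 (complete control) scale. Application was into the paddy water, 3 cm deep over the soil, on 2-leaf plants.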

rice (Oryra sativa) = assay: Test B flooded paddy test; details: Oryza sativa, 250 g ai/ha, Flood; 0 to 100 scale where 0 is no effect and 100 is complete control; read-out: Rice plant response rating
Procedure, shortened: as §1

[2] = tested on: barnyardgrass (Echinochloa crus-galli); assay: Test B flooded paddy test; details: Echinochloa crus-galli, 250 g ai/ha, Flood; 0 to 100 scale where 0 is no effect and 100 is complete control; read-out: Barnyardgrass plant response rating
Procedure, shortened: as §1

[3] = tested on: ducksalad (Heteranthera limosa); assay: Test B flooded paddy test; details: Heteranthera limosa, 250 g ai/ha, Flood; 0 to 100 scale where 0 is no effect and 100 is complete control; read-out: Ducksalad plant response rating
Procedure, shortened: as §1

Kochia (Kochia scoparia) [4] = assay: Test A postemergence; details: Bassia scoparia, post-emergence, 240 h; for pest or weed control at 125 g/ha: 125 g ai/ha, postemergence, visual injury vs untreated controls after approx. 10 d, 0 = no effect, 100 = complete control, read-out: Kochia plant response rating (0 to 100 scale); for pest or weed control at 31 g/ha: Postemergence, 31 g ai/ha, visual injury after approx. 10 d, 0 to 100 scale, 0 no effect, 100 complete control, read-out: Plant response rating, Kochia
Procedure, shortened: (§2)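 Greenhouse, ~10 d after spray; visual injury vs untreated controls, 0 = no effect, 100 = complete control. Preemergence: directed soil spray over planted seeds. Postemergence: plants 2–10 cm, 1–2 leaf stage. Loam/sand blend. Compound in non-phytotoxic solvent with surfactant.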

[5] = tested on: ryegrass, Italian (Italian ryegrass, Lolium multiflorum); assay: Test A postemergence; details: Lolium multiflorum, post-emergence, 240 h, 125 g ai/ha, postemergence, visual injury vs untreated controls after approx. 10 d; 0 = no effect, 100 = complete control; read-out: Ryegrass, Italian plant response rating (0 to 100 scale)
Procedure, shortened: as §2

[6] = tested on: wheat (Triticum aestivum); assay: Test A postemergence; details: Triticum aestivum, post-emergence, 240 h, 125 g ai/ha, postemergence, visual injury vs untreated controls after approx. 10 d; 0 = no effect, 100 = complete control; read-out: Wheat plant response rating (0 to 100 scale)
Procedure, shortened: as §2

[7] = tested on: ragweed (common ragweed, Ambrosia elatior); assay: Test A postemergence; details: Ambrosia artemisiifolia, post-emergence, 240 h, 125 g ai/ha, postemergence, visual injury vs untreated controls after approx. 10 d; 0 = no effect, 100 = complete control; read-out: Ragweed plant response rating (0 to 100 scale)
Procedure, shortened: as §2

[8] = tested on: Galium (catchweed bedstraw, Galium aparine); assay: Test A postemergence; details: Galium, post-emergence, 240 h; for pest or weed control at 125 g/ha: 125 g ai/ha, postemergence, visual injury vs untreated controls after approx. 10 d, 0 = no effect, 100 = complete control, read-out: Galium plant response rating (0 to 100 scale); for pest or weed control at 31 g/ha: Postemergence, 31 g ai/ha, visual injury after approx. 10 d, 0 to 100 scale, 0 no effect, 100 complete control, read-out: Plant response rating, Galium
Procedure, shortened: as §2

[9] = tested on: barnyardgrass (Echinochloa crus-galli); assay: Test A postemergence; details: Echinochloa crus-galli, post-emergence, 240 h; for pest or weed control at 125 g/ha: 125 g ai/ha, postemergence, visual injury vs untreated controls after approx. 10 d, 0 = no effect, 100 = complete control, read-out: Barnyardgrass plant response rating (0 to 100 scale); for pest or weed control at 31 g/ha: Postemergence, 31 g ai/ha, visual injury after approx. 10 d, 0 to 100 scale, 0 no effect, 100 complete control, read-out: Plant response rating, Barnyardgrass
Procedure, shortened: as §2

[10] = tested on: pigweed (Amaranthus retroflexus); assay: Test A postemergence; details: Amaranthus retroflexus, post-emergence, 240 h, 125 g ai/ha, postemergence, visual injury vs untreated controls after approx. 10 d; 0 = no effect, 100 = complete control; read-out: Pigweed plant response rating (0 to 100 scale)
Procedure, shortened: as §2

corn (Zea mays) = assay: Test A postemergence; details: Zea mays, post-emergence, 240 h; for plant injury at 125 g/ha: 125 g ai/ha, postemergence, visual injury vs untreated controls after approx. 10 d, 0 = no effect, 100 = complete control, read-out: Corn plant response rating (0 to 100 scale); for Corn plant response rating (crop injury, 0 = no effect, 100 = complete kill) at 31 g/ha: Postemergence, 31 g ai/ha, visual injury after approx. 10 d, 0 to 100 scale, 100 complete control
Procedure, shortened: as §2

[11] = tested on: blackgrass (Alopecurus myosuroides); assay: Test A postemergence; details: Alopecurus myosuroides, post-emergence, 240 h; for pest or weed control at 125 g/ha: 125 g ai/ha, postemergence, visual injury vs untreated controls after approx. 10 d, 0 = no effect, 100 = complete control, read-out: Blackgrass plant response rating (0 to 100 scale); for pest or weed control at 31 g/ha: Postemergence, 31 g ai/ha, visual injury after approx. 10 d, 0 to 100 scale, 0 no effect, 100 complete control, read-out: Plant response rating, Blackgrass
Procedure, shortened: as §2

[12] = tested on: giant foxtail (Setaria faberii); assay: Test A postemergence; details: Setaria faberi, post-emergence, 240 h; for pest or weed control at 125 g/ha: 125 g ai/ha, postemergence, visual injury vs untreated controls after approx. 10 d, 0 = no effect, 100 = complete control, read-out: Foxtail, Giant plant response rating (0 to 100 scale); for pest or weed control at 31 g/ha: Postemergence, 31 g ai/ha, visual injury after approx. 10 d, 0 to 100 scale, 0 no effect, 100 complete control, read-out: Plant response rating, Foxtail, Giant
Procedure, shortened: as §2

Kochia (Kochia scoparia) [13] = assay: Test A preemergence; details: Bassia scoparia, pre-emergence, 240 h, 0 to 100 scale where 0 is no effect and 100 is complete control, read-out: Kochia plant response rating; for pest or weed control at 31 g/ha: 31 g ai/ha, Preemergence; for pest or weed control at 125 g/ha: 125 g ai/ha, preemergence
Procedure, shortened: as §2

[14] = tested on: ryegrass, Italian (Italian ryegrass, Lolium multiflorum); assay: Test A preemergence; details: Lolium multiflorum, pre-emergence, 240 h, 0 to 100 scale where 0 is no effect and 100 is complete control, read-out: Ryegrass, Italian plant response rating; for pest or weed control at 31 g/ha: 31 g ai/ha, Preemergence; for pest or weed control at 125 g/ha: 125 g ai/ha, preemergence
Procedure, shortened: as §2

[15] = tested on: ragweed (common ragweed, Ambrosia elatior); assay: Test A preemergence; details: Ambrosia artemisiifolia, pre-emergence, 240 h, 0 to 100 scale where 0 is no effect and 100 is complete control, read-out: Ragweed plant response rating; for pest or weed control at 31 g/ha: 31 g ai/ha, Preemergence; for pest or weed control at 125 g/ha: 125 g ai/ha, preemergence
Procedure, shortened: as §2

[16] = tested on: barnyardgrass (Echinochloa crus-galli); assay: Test A preemergence; details: Echinochloa crus-galli, pre-emergence, 240 h, 0 to 100 scale where 0 is no effect and 100 is complete control, read-out: Barnyardgrass plant response rating; for pest or weed control at 31 g/ha: 31 g ai/ha, Preemergence; for pest or weed control at 125 g/ha: 125 g ai/ha, preemergence
Procedure, shortened: as §2

[17] = tested on: pigweed (Amaranthus retroflexus); assay: Test A preemergence; details: Amaranthus retroflexus, pre-emergence, 240 h, 0 to 100 scale where 0 is no effect and 100 is complete control, read-out: Pigweed plant response rating; for pest or weed control at 31 g/ha: 31 g ai/ha, Preemergence; for pest or weed control at 125 g/ha: 125 g ai/ha, preemergence
[18] = tested on: giant foxtail (Setaria faberii); assay: Test A preemergence; details: Setaria faberi, pre-emergence, 240 h, 0 to 100 scale where 0 is no effect and 100 is complete control, read-out: Foxtail, Giant plant response rating; for pest or weed control at 31 g/ha: 31 g ai/ha, Preemergence; for pest or weed control at 125 g/ha: 125 g ai/ha, preemergence
Procedure, shortened: as §2

[19] = visual injury rating, approximately 10 d

Structure (SMILES): CN1C[C@H](c2ccc(C(F)F)cc2)[C@@H](C(=O)Nc2ccccc2S(C)(=O)=O)C1=O [Compound 1175]
- pest or weed control at 250 g/ha [1]: 0%
- pest or weed control at 250 g/ha (rice (Oryra sativa)): 10%
- pest or weed control at 250 g/ha [2]: 65%
- pest or weed control at 250 g/ha [3]: 90%
- pest or weed control at 125 g/ha (Kochia (Kochia scoparia) [4]): 0%
- pest or weed control at 31 g/ha (Kochia (Kochia scoparia) [4]): 0%
- pest or weed control at 125 g/ha [5]: 50%
- plant injury at 125 g/ha [6]: 40%
- pest or weed control at 125 g/ha [7]: 30%
- pest or weed control at 125 g/ha [8]: 40%
- pest or weed control at 31 g/ha [8]: 20%
- pest or weed control at 125 g/ha [9]: 90%
- pest or weed control at 31 g/ha [9]: 50%
- pest or weed control at 125 g/ha [10]: 20%
- plant injury at 125 g/ha (corn (Zea mays)): 30%
- Corn plant response rating (crop injury, 0 = no effect, 100 = complete kill) at 31 g/ha (corn (Zea mays)): 0%
- pest or weed control at 125 g/ha [11]: 50%
- pest or weed control at 31 g/ha [11]: 0%
- pest or weed control at 125 g/ha [12]: 80%
- pest or weed control at 31 g/ha [12]: 50%
- pest or weed control at 31 g/ha (Kochia (Kochia scoparia) [13]): 20%
- pest or weed control at 125 g/ha (Kochia (Kochia scoparia) [13]; approx. 10 d): 50%
- pest or weed control at 31 g/ha [14]: 0%
- pest or weed control at 125 g/ha ([14]; approx. 10 d): 20%
- pest or weed control at 31 g/ha [15]: 0%
- pest or weed control at 125 g/ha ([15]; approx. 10 d): 20%
- pest or weed control at 31 g/ha [16]: 50%
- pest or weed control at 125 g/ha ([16]; approx. 10 d): 90%
- pest or weed control at 31 g/ha [17]: 0%
- pest or weed control at 125 g/ha ([17]; approx. 10 d): 40%
- pest or weed control at 31 g/ha [18]: 70%
- pest or weed control at 125 g/ha ([18]; approx. 10 d): 90%

Structure (SMILES): COc1ccc(C(F)(F)F)cc1[C@H]1CN(C)C(=O)[C@@H]1C(=O)Nc1cccc(F)c1F [Compound 1184]
- pest or weed control at 250 g/ha [1]: 0%
- pest or weed control at 250 g/ha (rice (Oryra sativa)): 15%
- pest or weed control at 250 g/ha [2]: 90%
- pest or weed control at 250 g/ha [3]: 95%
- pest or weed control at 125 g/ha (Kochia (Kochia scoparia) [4]): 0%
- pest or weed control at 31 g/ha (Kochia (Kochia scoparia) [4]): 0%
- pest or weed control at 125 g/ha [5]: 30%
- plant injury at 125 g/ha [6]: 60%
- pest or weed control at 125 g/ha [7]: 0%
- pest or weed control at 125 g/ha [8]: 20%
- pest or weed control at 31 g/ha [8]: 0%
- pest or weed control at 125 g/ha [9]: 80%
- pest or weed control at 31 g/ha [9]: 70%
- pest or weed control at 125 g/ha [10]: 0%
- plant injury at 125 g/ha (corn (Zea mays)): 40%
- Corn plant response rating (crop injury, 0 = no effect, 100 = complete kill) at 31 g/ha (corn (Zea mays)): 50%
- pest or weed control at 125 g/ha [11]: 60%
- pest or weed control at 31 g/ha [11]: 30%
- pest or weed control at 125 g/ha [12]: 80%
- pest or weed control at 31 g/ha [12]: 80%
- pest or weed control at 31 g/ha (Kochia (Kochia scoparia) [13]): 0%
- pest or weed control at 125 g/ha (Kochia (Kochia scoparia) [13]; [19]): 0%
- pest or weed control at 31 g/ha [14]: 40%
- pest or weed control at 125 g/ha [14, 19]: 50%
- pest or weed control at 31 g/ha [15]: 0%
- pest or weed control at 125 g/ha [15, 19]: 0%
- pest or weed control at 31 g/ha [16]: 90%
- pest or weed control at 125 g/ha [16, 19]: 100%
- pest or weed control at 31 g/ha [17]: 0%
- pest or weed control at 125 g/ha [17, 19]: 0%
- pest or weed control at 31 g/ha [18]: 80%
- pest or weed control at 125 g/ha [18, 19]: 90%
